Where no end group is shown, it is not given here.
How the values were obtained:
plasma corticosterone = experiment: Plasma corticosterone levels in the Saelens precipitated withdrawal model, Protocol B (Example 3); type: in vivo, mouse; conditions: morphine-treated mice, naloxone-precipitated withdrawal; for plasma corticosterone levels: TCAP-1 250 nmole/kg vs. CP154,526 5, 20, 50 mg/kg
Procedure: Two hours after the 11 a.m. injections, at 1 p.m., all mice received an intraperitoneal (“i.p.”) injection of Naloxone 2.5 mg/kg), baseline blood samples were taken and then they were immediately placed individually in an observation area and video recorded 20 minutes. The number of jumps (lifting of all feet off the ground) were recorded for 20 minutes. A second set of blood samples were taken post-jumps (about 30 minutes after the naloxone administration.
The same protocol as in Protocol A was followed with the exception that on day 2, there were three Group 3 mice (10 per group) which were administered: 5 mg/kg, 20 mg/kg or 50 mg/kg of the CRH antagonist CP154,526.

Swiss Webster mice [1] = experiment: Saelens drug-precipitated withdrawal in the mouse, TCAP-1 pre-morphine (Example 1); type: in vivo
Swiss Webster mice [2] = experiment: Saelens precipitated withdrawal test, single dose TCAP-1 post-morphine (Example 2); type: in vivo, mouse; conditions: Group 4: TCAP-1 500 nmole/kg s.c. single dose post-morphine; naloxone 10 mg/kg i.p.
Swiss Webster mice [3] = experiment: Saelens precipitated withdrawal test, CRH antagonist vs. TCAP-1, Protocol A (Example 3); type: in vivo, mouse; conditions: TCAP-1 250 nmole/kg per time point vs. CRH antagonist 20 mg/kg per time point; morphine-treated mice; naloxone 2.5 mg/kg i.p.
Swiss Webster mice [4] = experiment: Saelens precipitated withdrawal test, CRH antagonist dose response vs. TCAP-1, Protocol B, jumps (Example 3); type: in vivo, mouse; conditions: TCAP-1 250 nmole/kg vs. CP154,526 5, 20, 50 mg/kg; morphine-treated mice; naloxone 2.5 mg/kg i.p.

Compound	plasma corticosterone levels (plasma corticosterone)	dose needed to approach TCAP-1 250 nmole/kg effect on corticosterone levels (plasma corticosterone)	Mean # Jumps over 20 Minutes (Swiss Webster mice [1]; Group 8: saline days 1-3, saline day 4-5, MK801 on day 5, no morphine, no naloxone, n = 4)	Mean # Jumps over 20 Minutes (Swiss Webster mice [1]; TCAP-1 10 nmole/kg s.c. days 1-3, morphine 32 mg/kg i.p. days 4-5, naloxone 10 mg/kg i.p., n = 3)	Mean # Jumps over 20 Minutes (Swiss Webster mice [1]; TCAP-1 25 nmole/kg s.c. days 1-3, morphine 32 mg/kg i.p. days 4-5, naloxone 10 mg/kg i.p., n = 9)	Mean # Jumps over 20 Minutes (Swiss Webster mice [1]; TCAP-1 50 nmole/kg s.c. days 1-3, morphine 32 mg/kg i.p. days 4-5, naloxone 10 mg/kg i.p., n = 9)	Mean # Jumps over 20 Minutes (Swiss Webster mice [1]; TCAP-1 100 nmole/kg s.c. days 1-3, morphine 32 mg/kg i.p. days 4-5, naloxone 10 mg/kg i.p., n = 9)	Mean # Jumps over 20 Minutes (Swiss Webster mice [1]; TCAP-1 250 nmole/kg s.c. days 1-3, morphine 32 mg/kg i.p. days 4-5, naloxone 10 mg/kg i.p., n = 9)	jump rate after naloxone-precipitated morphine withdrawal (Swiss Webster mice [1]; TCAP-1 10-250 nmole/kg pre-morphine vs. morphine alone)	number of jumps in 20 minutes after naloxone (Swiss Webster mice [2])	number of jumps/20 minutes after naloxone (Swiss Webster mice [3])	number of jumps/20 minutes (Swiss Webster mice [4])
CCCCN(CC)c1nc(C)nc2c1c(C)cn2-c1c(C)cc(C)cc1C [CP154,526]	still had an effect	at least 50 mg/kg										
C[C@]12N[C@H](Cc3ccccc31)c1ccccc12 [MK801, reference compound]			0									
Teneurin C-Terminal Associated Peptide-1 (QQLLGTGRVQGYDGYFVLSVEQYLELSDSANNIHFMRQSEI-NH2) [TCAP-1, mouse TCAP-1 in some experiments]	more effective in reducing plasma corticosterone levels in the mice at lower dosage levels			47	47	42	32	16	reduced jump rates in a dose dependent manner	significantly reduced the number of jumps	much more effective and at lower dosages in significantly lowering the number of jumps	more effective in reducing the number of jumps/20 minutes

— patent US20220062380A1 (priority 2018, published 2022)
